Patent publication US20200384018A1, “OZONE NANOBUBBLE ANTICANCER AGENT” (OPT CREATION INC., priority 2017, published 2020)
Counter-ions that a name gives are not always drawn.

Each compound was assayed on MIAPaCa-2 cells (assay: Combination of NAnO3 and existing anticancer agents, sequential administration (neutral red)). Conditions: exposed only to the anticancer agent (doxorubicin 0.1, gemcitabine 0.04, cisplatin 4 μg/mL); DMEM medium = 100%.
Format: cell-based, human
Protocol: A cell suspension was prepared such that MIAPaCa-2 viable cell count became 5×10^4 cells/mL. The cell suspension (1 mL) was seeded in each of wells of a 12 well plate, allowed to stand in a CO2 incubator set at 37° C. and 5% CO2 and cultured for 18 hours or more to allow the cells to adhere to the bottom of the plate. After the completion of culture, the medium was removed from the plate and the following test-substance solutions were added.
Test-substance solutions 1 to 6 were prepared in the same manner as in Section 2.1 and used. Test-substance solutions 7 to 9 were prepared by adding each anticancer agent/DMEM medium (0.9 mL) and, in several minutes later, adding 0.1 mL of NAnO3. The same operation was also repeated after 48 hours and 72 hours.
After the completion of culture, the medium was removed and washing with PBS (−) was made. To each of the wells of the plate, a 0.005% neutral red (NR) (Kanto Chemical Co., Inc., Lot No. 806W2294) D-MEM solution (1 mL) was added and the plate was allowed to stand in a CO2 incubator for 3 hours. After 3 hours, the NR solution was removed and washing was made with PBS (−). To each plate, 1 mL of a fixation/extraction liquid (ethanol 50% (v/v), glacial acetic acid 1% (v/v) aqueous solution) was added and shaking was made for 10 minutes. Thereafter, the value of the absorbance was measured by using a microplate reader (EL×800, BIO-TEC INSTRUMENTS, INC., wavelength: 540 nm).
Provided that the absorbance of DMEM medium (test-substance solution 1) was regarded as 100%, the cell survival rate (%) of each test group was obtained (FIG. 4).

In order of rising cell survival rate:
1. Nc1ccn([C@@H]2O[C@H](CO)[C@@H](O)C2(F)F)c(=O)n1 [gemcitabine, gemcitabine hydrochloride]  44.8%
2. N.N.[Cl][Pt][Cl] [cisplatin]  47.5%
3. COc1cccc2c1C(=O)c1c(O)c3c(c(O)c1C2=O)C[C@@](O)(C(=O)CO)C[C@@H]3O[C@H]1C[C@H](N)[C@H](O)[C@H](C)O1 [doxorubicin, doxorubicin hydrochloride]  51.1%
